Marks after values point to notes of the source that are not given here.
Experiments:
[1] = tested on: Human liver cancer HepG2 cells; test: Anti-tumor activity: apoptosis of HepG2 cells by flow cytometry; format: cell-based; settings: 48 hours
Method: Human liver cancer HepG2 cells were prepared and then cultured in an incubator containing 5% of CO2 at 37° C. using a DMEN culture medium containing 10% of fetal bovine serum, penicillin (100 μmol·L^−1) and streptomycin (1 mg·mL^−1). HepG2 cells in logarithmic phase were diluted with RPMI-1640 culture medium containing 10% of fetal bovine serum to a concentration of 1×10^4 per mL; then inoculated into a 96-well plate at 100 μL per well; and then cultured in an incubator having a relative humidity of 90% and 5% of CO2 at 37° C. The culture medium was discarded after the HepG2 cells were cultured for 24 hours. The culture medium containing baicalin and baicalin magnesium (equivalent to the concentration of baicalin (5 μg/mL, 10 μg/mL and 20 μg/mL)) were added in wells respectively with each concentration in four parallel wells. And at the same time, wells having culture medium without cells were used as a blank control group, and wells having cells without drug were used as a negative control group. The groups were continuously cultured for 48 hours to collect the cells. The cells were washed with PBS solution 2 times, and detected with a flow cytometer by FACS for parameter acquisition and data analysis.

[2] = Pharmacokinetic experiments (no data given); format: in vivo; settings: in words only
[3] = tested on: yeast-induced febrile rats; test: Antipyretic effect in yeast-induced febrile rats; format: in vivo, SD male rats; settings: for ΔT comparing the baicalin magnesium with the baicalin: difference between groups; for Body temperature change ΔT: intragastric 80 mg/kg baicalin or equivalent
Method: SD male rats were randomly divided into 4 groups, a control group, a model group, a baicalin group and a baicalin magnesium group. Rats were raised in a normal day/night cycle and at room temperature (22±2° C.) and a relative humidity of (50±2)%. Three days before the test, rats were placed in the experimental environment to adapt to the experimental conditions. Rats having a basal body temperature of 37.5-39.0° C. were selected for test The rats were fasted for 12 hours before the test, and the body temperature of rats was measured once every 1 hour when tested. Average of three body temperature values (the temperature values would be removed if a difference between the highest value and the lowest value was greater than 0.5° C.) of rats was used as the basal body temperature.
The rats were intragastrically administrated with baicalin or baicalin magnesium, and then immediately subcutaneously injected with 20% of dried yeast saline suspension (not for the control group). The administration mode was as follows: rats in the control group were intragastrically administrated with 2 ml/kg of normal saline and subcutaneously injected with 10 ml/kg of normal saline; rats in the model group were ntragastrically administrated 2 ml/kg of normal saline and subcutaneously injected with 2 g/kg of yeast; rats in the baicalin group were intragastrically administrated with 80 mg/kg of baicalin and subcutaneously injected with 2 g/kg of yeast; and rats in the baicalin magnesium group were intragastrically administrated with baicalin magnesium (equivalent to 80 mg/kg of baicalin) and subcutaneously injected with 2 g/kg of yeast. The body temperature of the rats was measured once every 2 hours for 14 hours to observe the temperature change of rats (ΔT, ° C.) at different time after injection of the yeast.

[4] = tested on: mice with acute liver injury induced by D-galactose; test: Protection against liver injury (D-galactose-induced acute liver injury); format: in vivo; settings: intragastric, 10 mg/kg baicalin or equivalent, 5 days, D-galactose 0.5 g/kg i.p. on day 4
Method: 40 healthy mice were randomly divided into 4 groups, a normal group, a model group, a baicalin group and a baicalin magnesium group. Mice in the baicalin group were administrated with baicalin at a dose of 10 mg/kg, and mice in the baicalin magnesium group were administrated with baicalin magnesium at a dose equivalent to 10 mg/kg of baicalin. Mice in the normal group and the model group were intragastrically administrated with the same volume of normal saline for 5 days. On the fourth day, mice in the model group and the administration groups were intraperitoneally injected with 0.5 g/kg of D-galactose, and mice in the normal group were intraperitoneally injected with the same volume of normal saline. The activities of ALT, AST, SOD and GSH-Px in the serum and the content of MDA were detected. Variance analysis was performed by SPSS-19.0 statistical software.

[5] = HepG2, 5 μg/mL (baicalin equivalent)
[6] = HepG2, 10 μg/mL (baicalin equivalent)
[7] = HepG2, 20 μg/mL (baicalin equivalent)

Compound	Apoptosis % [1, 5]	Apoptosis % [1, 6]	Apoptosis % [1, 7]	Adsorption rate compared to baicalin [2]	ΔT comparing the baicalin magnesium with the baicalin ([3]; 6 h)	Body temperature change ΔT ([3]; 6 h after yeast 2 g/kg s.c.)	ΔT comparing the baicalin magnesium with the baicalin ([3]; 8 h)	Body temperature change ΔT ([3]; 8 h after yeast 2 g/kg s.c.)	ALT (serum) [4]	AST (serum) [4]	GSH-Px (serum) [4]	MDA (serum) [4]	SOD (serum) [4]
O=C(O)C1O[C@@H](Oc2cc3oc(-c4ccccc4)cc(=O)c3c(O)c2O)C(O)[C@@H](O)[C@@H]1O (some centres unmarked) [Baicalin Magnesium, baicalin magnesium]	11.67 ± 0.65 %	23.67 ± 5.21 %	33.12 ± 1.58*^Δ %	faster adsorption rate	0.2 °C	0.2 °C	0.5 °C	0.3 °C	165.1 ± 8.7*^Δ U/L	139.8 ± 13.7*^Δ U/L	11.8 ± 0.5*^Δ U/L	2.1 ± 0.3*^Δ nmol/L	48.2 ± 2.9 U/L
O=C(O)[C@H]1O[C@@H](Oc2cc3oc(-c4ccccc4)cc(=O)c3c(O)c2O)[C@H](O)[C@@H](O)[C@@H]1O [Baicalin]	9.57 ± 0.56 %	21.45 ± 1.67 %	30.67 ± 3.45 %	–	–	0.4 °C	–	0.8 °C	191.4 ± 19.4 U/L	168.5 ± 11.9 U/L	9.8 ± 0.9 U/L	3.1 ± 0.4 nmol/L	45.2 ± 2.9 U/L
